Test results published in patent US12479858B2, “Macrocyclic compounds as sting agonists and methods and uses thereof” (Lupin Limited, priority 2019, dated 2025).
Entries after “also recorded” stand apart in the source; their conditions may differ. Structures can show the parent of a compound that is named as a salt. One block for each compound: values may come before it.

Tests used:
Human STING = biological target: T1, Human STING (Homo sapiens, UniProt Q86WV6, G230A/H232R/R293Q/R71H); assay: Stimulation of human STING signaling in THP1 cell line (THP1-Blue ISG SEAP reporter); format: cell-based; settings: THP1-Blue ISG cells, SEAP activity, 18-20 hours
T1 construct: using human THP1-Blue™ ISG SEAP based reporter cell line (Invivogen); host or cells: THP1-Blue ISG cells (human monocytic THP-1 derived SEAP reporter line)
T1 sequence (Q86WV6 whole entry R71H/G230A/H232R/R293Q): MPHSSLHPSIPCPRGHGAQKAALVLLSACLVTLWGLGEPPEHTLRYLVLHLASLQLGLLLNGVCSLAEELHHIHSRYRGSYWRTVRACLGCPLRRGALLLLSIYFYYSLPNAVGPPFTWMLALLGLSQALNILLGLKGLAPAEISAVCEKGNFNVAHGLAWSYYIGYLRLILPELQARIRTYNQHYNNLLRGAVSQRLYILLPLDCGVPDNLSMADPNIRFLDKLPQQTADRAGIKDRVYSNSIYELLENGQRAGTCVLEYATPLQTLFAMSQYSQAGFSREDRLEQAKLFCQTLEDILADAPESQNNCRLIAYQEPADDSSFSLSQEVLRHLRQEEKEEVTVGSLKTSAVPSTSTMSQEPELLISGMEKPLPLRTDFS
Method: Biological Assay—Stimulation of Human STING Signaling in THP1 Cell Line
Compounds were tested for their STING activation potential using human THP1-Blue™ ISG SEAP based reporter cell line (Invivogen). Briefly, THP1-Blue ISG cells (100,000 cells/well) in 96 well plate were treated with varying concentrations of test and reference compounds and incubated at 37° C. with 5% CO2 for 18-20 hours. The control untreated cells were also set up. Post incubation, the cell supernatant was tested for SEAP (Secreted Embryonic Alkaline Phosphatase) activity using the QuantiBlue™ substrate reagent (Invivogen). The formation of blue coloured product was quantified by measuring absorbance at wavelength of 620 nm using PheraStar/Tecan reader. The average of duplicate readouts for each data point was plotted in GraphPad prism 6 against the concentration of test or reference compound to calculate EC50 value. The fold of SEAP induction or increase in luminescence at different data points was estimated against the un-stimulated cell control set.

CT26 Allograft = assay: Tumor volume in CT26 allograft BALB/c mice model, intravenous administration; format: in vivo; settings: for effect on tumor volume / subjects exhibiting complete tumor regression: i.v., indicated dose at days 1, 4, and 8
Method: Effect of Compounds on Tumor Volume in CT26 Allograft BALB/c Mice Model by Intravenous (i.v.) Administration
Healthy, female BALB/c mice in the age group of 5-8 weeks issued from Research Animal Facility (RAF). These mice were housed in individually ventilated cages (IVC) in the experimental animal room and were acclimatized not less than 5 days prior to cell inoculation. All the experimental activities were carried out inside the biosafety cabinet to ensure sterility. Under aseptic conditions, Allograft tumor model was generated by inoculating BALB/c mice with 0.1 million CT26 single cell suspension (colorectal cancer model), using 1 mL disposable syringe fitted with a 26G ½″ sterile needle. Each mouse was inoculated with 100 μL of CT26 cell suspension in phosphate buffered saline (PBS) media, subcutaneously in right flank region. Mice were randomized into different groups, post cell inoculation, with approximately equal mean and equal variation (S.E.M.) of tumor volumes in various treatment groups including vehicle control group.
Tumor size was measured with Vernier caliper when the tumor became palpable. Tumor volume (T. V.) was calculated by using the formula: Tumor volume (mm^3)=(L×W^2)/2 • Where, L—Length of tumor, W—Width of tumor
Mice were selected and randomized, on the basis of tumor volume, into required no. of groups with approximately equal mean and equal variation on day 1 of treatment, post-tumor cell inoculation. All study groups were treated via intravenous route on day 1, 4 and 8 dosing schedule, through lateral tail vein at a dose volume of 5 mL/kg.
Tumor sizes were measured with Vernier caliper twice weekly and body weights of mice were recorded daily.
Percent tumor growth inhibition (% TGI) was calculated using the formula: % TGI=[1−(Tf−Ti)/(Cf−Ci)]×100 Wherein Tf and Ti are the final and initial test tumor volumes, respectively, and Cf and Ci are the final and initial control mean tumor volumes, respectively.
Percent Tumor Regression (% TR) was calculated using the formula: % TR=[(Initial T.V.−Final T.V.)/(Initial T.V.)]×100 Wherein T.V.=Tumor Volume
Body weight change (%) was calculated by using the formula: Body weight change (%)[=(Final B.Wt.)−(Initial B.Wt.)/Initial B.Wt.]×100 Wherein B.Wt.=Body weight

CD3^+CD8^+ T cells = assay: Estimation of immune cell infiltration in tumors (flow cytometry); format: in vivo, Balb/c mice; settings: for % CD3^+CD8^+ T cells: infiltration in tumor, 96 h post treatment, 0.375 mg/kg single i.v.; for % CD3^+CD8^+ T cells infiltrating the tumor as compared to the vehicle-treated group: single i.v. dose of 0.375 mg/kg, 96 h post treatment initiation
Method: Estimation of immune cell infiltration in tumors: CT-26 tumor-bearing Balb/c mice were treated intravenously with 0.375 mg/kg of test compounds and blood and tumors were processed for analysis of CD8^+, CD3^+ and CD45^+ T cells at 24 h and 96 h after start of treatment. Blood samples were subjected to RBC lysis and the cells were recovered by centrifugation. Following wash with PBS, the cells were blocked using TruStain FcX™ blocking antibody and stained with fluorophore-tagged anti-CD45, anti-CD3 and anti-CD8 antibodies. Tumor samples were minced and subjected to tissue digestion using freshly prepared collagenase-IV solution (1 mg/ml) containing DNase (0.05 mg/ml) for 1-1.5 h at 37° C. and 150-200 rpm. Single cell suspension was prepared by filtering it through a 100 μm mesh and checked for cell viability. Cells were stained with various antibodies as mentioned above. The distinct T cell subsets were analysed on FACS Canto II (BD) and percentage of each population was calculated after initial gating of CD45^+ lymphocyte population.

EC50 (Human STING): 1 to 10 nM
Structure (SMILES): CCn1nc(C)cc1C(=O)Nc1nc2cc(C(N)=O)cc3c2n1C/C=C/Cn1c(NC(=O)c2cc(C)nn2CC)nc2cc(C(=O)N[C@H]4CC[C@H](C(=O)O)CC4)cc(c21)OCCCO3 [Compound 2, (1R,4R)-4-((E)-12-carbamoyl-1,15-bis(1-ethyl-3-methyl-1H-pyrazole-5-carboxamido)-8,9,16,19-tetrahydro-7H-6,10-dioxa-2,14,15a,19a-tetraazacyclopentadeca[3,2,1-cd:8,9,10-c′d′]diindene-4-carboxamido)cyclohexane-1-carboxylic acid sodium salt]
effect on body weight (CT26 Allograft; 3 mpk (mg/kg)): < 10% | effect on tumor volume (CT26 Allograft): reduces tumor volume | subjects exhibiting complete tumor regression (CT26 Allograft): 7 out of 9 | effect on tumor volume at high dose (CT26 Allograft; two different doses, days 1, 4, and 8, n=10 (FIG. 6)): reduces tumor volume | % CD3^+CD8^+ T cells (CD3^+CD8^+ T cells): 11.2 ± 0.2% | % CD3^+CD8^+ T cells infiltrating the tumor as compared to the vehicle-treated group (CD3^+CD8^+ T cells; sodium salt, 0.375 mg/kg): higher percentage of T cell infiltration over that of vehicle control; also recorded: increase

EC50 (Human STING): 1 to 10 nM
Structure (SMILES): CCn1nc(C)cc1C(=O)Nc1nc2cc(C(N)=O)cc3c2n1C/C=C/Cn1c(NC(=O)c2cc(C)nn2CC)nc2cc(C(=O)N[C@H]4CC[C@H](c5nnn[nH]5)CC4)cc(c21)OCCCO3 [Compound 6, (E)-N-((1R,4R)-4-(1H-tetrazol-5-yl)cyclohexyl)-1,15-bis(1-ethyl-3-methyl-1H-pyrazole-5-carboxamido)-8,9,16,19-tetrahydro-7H-6,10-dioxa-2,14,15a,19a-tetraazacyclopentadeca[3,2,1-cd:8,9,10-c′d′]diindene-4,12-dicarboxamide sodium salt]
effect on tumor volume (CT26 Allograft): reduces tumor volume | subjects exhibiting complete tumor regression (CT26 Allograft): 7 out of 9 | % CD3^+CD8^+ T cells (CD3^+CD8^+ T cells): 13.9 ± 1.3% | % CD3^+CD8^+ T cells infiltrating the tumor as compared to the vehicle-treated group (CD3^+CD8^+ T cells): increase

EC50 (Human STING): 1 to 10 nM
Structure (SMILES): CCn1nc(C)cc1C(=O)Nc1nc2cc(C(N)=O)cc3c2n1C/C=C/Cn1c(NC(=O)c2cc(C)nn2CC)nc2cc(C(=O)NCCCn4cc(C(=O)O)cn4)cc(c21)OCCCO3 [Compound 8, (E)-1-(3-(12-carbamoyl-1,15-bis(1-ethyl-3-methyl-1H-pyrazole-5-carboxamido)-8,9,16,19-tetrahydro-7H-6,10-dioxa-2,14,15a,19a-tetraazacyclopentadeca[3,2,1-cd:8,9,10-c′d′]diindene-4-carboxamido)propyl)-1H-pyrazole-4-carboxylic acid sodium salt]
effect on tumor volume (CT26 Allograft): reduces tumor volume | subjects exhibiting complete tumor regression (CT26 Allograft): 5 out of 9 | % CD3^+CD8^+ T cells (CD3^+CD8^+ T cells): 15.5 ± 2.2% | % CD3^+CD8^+ T cells infiltrating the tumor as compared to the vehicle-treated group (CD3^+CD8^+ T cells): increase

Structure (SMILES): CCn1nc(C)cc1C(=O)Nc1nc2cc(C(N)=O)cc3c2n1C/C=C/Cn1c(NC(=O)c2cc(C)nn2CC)nc2cc(C(=O)N[C@H]4CC[C@H](c5nnn[nH]5)CC4)cc(c21)OC[C@@H](N1C2CCC1COC2)CO3 [Compound 12, (8S,E)-N4-((1R,4S)-4-(1H-tetrazol-5-yl)cyclohexyl)-8-(3-oxa-8-azabicyclo[3.2.1]octan-8-yl)-1,15-bis(1-ethyl-3-methyl-1H-pyrazole-5-carboxamido)-8,9,16,19-tetrahydro-7H-6,10-dioxa-2,14,15a,19a-tetraazacyclopentadeca[3,2,1-cd:8,9,10-c′d′]diindene-4,12-dicarboxamide sodium salt]
EC50 (Human STING): 1 to 10 nM | effect on tumor volume (CT26 Allograft): reduces tumor volume | subjects exhibiting complete tumor regression (CT26 Allograft): 8 out of 10 | % CD3^+CD8^+ T cells (CD3^+CD8^+ T cells): 12.2 ± 0.5% | % CD3^+CD8^+ T cells infiltrating the tumor as compared to the vehicle-treated group (CD3^+CD8^+ T cells): increase

Structure (SMILES): CCn1nc(C)cc1C(=O)Nc1nc2cc(C(N)=O)cc3c2n1C/C=C/Cn1c(NC(=O)c2cc(C)nn2CC)nc2cc(C(=O)N[C@H]4CC[C@H](C(=O)O)CC4)cc(c21)OC[C@@H](N1C2CCC1COC2)CO3 [Compound 14, (1S,4R)-4-((8S,E)-8-(3-oxa-8-azabicyclo[3.2.1]octan-8-yl)-12-carbamoyl-1,15-bis(1-ethyl-3-methyl-1H-pyrazole-5-carboxamido)-8,9,16,19-tetrahydro-7H-6,10-dioxa-2,14,15a,19a-tetraazacyclopentadeca[3,2,1-cd:8,9,10-c′d′]diindene-4-carboxamido)cyclohexane-1-carboxylic acid sodium salt]
EC50 (Human STING): 1 to 10 nM | effect on tumor volume (CT26 Allograft): reduces tumor volume | subjects exhibiting complete tumor regression (CT26 Allograft): 6 out of 9
